Data on 11 compounds can be found in US11207385B2, “Melanocortins and methods of use thereof” (Aequus Biopharma, Inc., priority 2015, dated 2021).

One may read the EC50 as the midpoint of the concentration-response curve. Lower therefore signals a more potent agent.

For one series, the system named is plasma corticosterone. In words: Steroidogenic effects: corticosterone response in healthy mice (ELISA). In kind it is in vivo, Balb/c mice. To be noted: for Mean corticosterone: plasma 1 h after dosing. How it is done: Compositions described herein were administered to Balb/c mice to determine the half-maximal effective concentrations for induction of corticosteroids in healthy mice. Balb/c mice were divided into 13 groups of 4 animals each (Groups 1-13), and each animal was administered a composition at a dosage as indicated in Table 5.
Each animal was injected subcutaneously at 0.2 ml/mouse as in Table 5. One hour after vehicle or test compositions were administered, the mice were anesthetized and exsanguinated into pre-chilled EDTA-treated microtainer tubes (Becton-Dickinson). The whole blood was processed to plasma and assayed by ELISA for corticosterone (Enzo Life Sciences).
Background: ELISA stands for enzyme-linked immunosorbent assay.

A further series has as its target T1, MCR2 (Homo sapiens, UniProt Q01718).
T1 construct: expressed in transfected cells; host or cells: CHO (CHO-MCR2)
In words: cAMP production (LANCE cAMP assay) in CHO-MCR2 cells. In kind it is cell-based. An excerpt: The manufacturer's recommended protocol was followed.
For orientation: Cyclic AMP is a second messenger, typically raised through Gs and lowered through Gi signalling.

Series [1] concerns murine models of gout (MSU-injected air pouch). Put plainly: Murine air pouch model of gout, neutrophil counts and IL-1β in exudate (Example 6). In kind it is in vivo, Balb/c mice. To be noted: 3 and 10 nmol/mouse sc 1 h before MSU. As for the experimental part: An air pouch was formed by injecting 6 mL of sterile air using a syringe filter with a 0.22 micron air filter and 23-gauge needle subcutaneously into a shaved skin site on the back of male Balb/c mice (age 6-8 weeks) on Day 0. The wound result from the pouch was allowed to heal for 3 days without any intervention. The pouch was then re-inflated with 3 mL of sterile air on Day 3. Three days after re-inflation on Day 6, compositions described herein were administered via subcutaneous injection 1 hour prior to the administration of 30 mg monosodium urate crystals (MSU) directly into the air pouch to induce an inflammatory response. Four hours after injection of MSU, mice were anesthetized and exsanguinated. Exudate from the air pouch was collected by lavaging the air pouch of each animal with 3 ml of sterile PBS containing 10 U/ml heparin. Analyses performed on exudates include determining neutrophil counts and IL-1β cytokine concentrations. […] 10 • 3) NDP-α-MSH-linker-linker-ACTH1-24, SEQ ID NO. 23 • 4) ACTH1-24-linker-linker-NDP-α-MSH, SEQ ID NO. 26
SEQ ID NOS. […] SEQ ID NO. 23 and SEQ ID NO. […] 10 in reducing neutrophil counts and IL-1β cytokine concentrations in collected exudate, and the arrangement of SEQ ID NO. […] 23.

The target in the next series is T2, MCR4 (Homo sapiens, UniProt P32245).
T2 construct: expressed in transfected cells; host or cells: CHO (CHO-MCR4)
T2 sequence (P32245 whole entry): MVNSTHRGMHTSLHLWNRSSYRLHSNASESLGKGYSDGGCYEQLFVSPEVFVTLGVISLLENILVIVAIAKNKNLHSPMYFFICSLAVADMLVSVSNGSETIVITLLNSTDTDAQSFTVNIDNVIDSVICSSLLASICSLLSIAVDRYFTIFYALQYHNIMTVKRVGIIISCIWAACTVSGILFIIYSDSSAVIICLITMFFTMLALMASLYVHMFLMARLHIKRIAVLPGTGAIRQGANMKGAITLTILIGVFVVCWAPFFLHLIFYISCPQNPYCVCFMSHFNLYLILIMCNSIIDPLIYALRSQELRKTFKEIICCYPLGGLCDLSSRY
In words: cAMP production (LANCE cAMP assay) in CHO-MCR4 cells. In kind it is cell-based. To be noted: Cell Pool B (partially enriched for MCR expression).

[2] abbreviates: Cell Pool B (partially enriched for MCR expression).
The mark [3] stands for this setting: Cell Pool A (partially enriched for MCR expression).

Square brackets hold non-standard residues; d marks the D form. Ends that are not written are not given here. Nle = CCCC[C@H](N)C(=O)O A value given as a limit tells only on which side of the number the result lay.

T1 sequence (Q01718 whole entry): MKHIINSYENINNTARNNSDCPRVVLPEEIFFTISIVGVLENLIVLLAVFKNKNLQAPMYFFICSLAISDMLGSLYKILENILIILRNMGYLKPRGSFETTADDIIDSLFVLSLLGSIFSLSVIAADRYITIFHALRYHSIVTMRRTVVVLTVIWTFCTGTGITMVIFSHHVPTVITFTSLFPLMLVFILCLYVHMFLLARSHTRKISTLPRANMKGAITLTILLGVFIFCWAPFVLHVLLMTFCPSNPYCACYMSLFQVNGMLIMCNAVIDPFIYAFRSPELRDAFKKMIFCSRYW
T1 sequence (Q8TCY5 whole entry partner): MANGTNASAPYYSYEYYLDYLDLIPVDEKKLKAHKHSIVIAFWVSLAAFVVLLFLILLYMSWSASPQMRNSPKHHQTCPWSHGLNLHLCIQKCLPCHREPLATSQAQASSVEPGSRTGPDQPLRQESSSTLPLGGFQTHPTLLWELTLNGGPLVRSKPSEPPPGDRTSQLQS
Procedure for MCR4: MCR stimulation in response to polypeptides added to cell culture media was measured by cAMP production via LANCE cAMP assay (Perkin Elmer cat #AD0263).
The manufacturer's recommended protocol was followed. […] To each well was added 5 uL of cell suspension (10,000 CHO-MCR cells per well, with Alexa-labeled antibodies). The mixtures were incubated for 30 minutes at room temperature. Then, to each well was added 10 uL of Detection Mix. The mixtures were incubated for 120 minutes at room temperature. […] This process was repeated for each of CHO-MCR1, CHO-MCR2, CHO-MCR3, CHO-MCR4 and CHO-MCR5 cells.

In the case of `CCCC[C@H](NC(=O)[C@H](CO)NC(=O)[C@H](Cc1ccc(O)cc1)NC(=O)[C@H](CO)NC(=O)[C@H](CO)NC(=O)CNC(=O)CNC(=O)CNC(=O)CNC(=O)[C@H](CO)NC(=O)CNC(=O)CNC(=O)CNC(=O)CNC(=O)[C@@H]1CCCN1C(=O)[C@H](Cc1ccc(O)cc1)NC(=O)[C@@H](NC(=O)[C@H](CCCCN)NC(=O)[C@@H](NC(=O)[C@@H]1CCCN1C(=O)[C@H](CCCNC(=N)N)NC(=O)[C@H](CCCNC(=N)N)NC(=O)[C@H](CCCCN)NC(=O)[C@H](CCCCN)NC(=O)CNC(=O)[C@@H](NC(=O)[C@@H]1CCCN1C(=O)[C@H](CCCCN)NC(=O)CNC(=O)[C@H](Cc1c[nH]c2ccccc12)NC(=O)[C@H](CCCNC(=N)N)NC(=O)[C@H](Cc1ccccc1)NC(=O)[C@H](Cc1c[nH]cn1)NC(=O)[C@H](CCC(=O)O)NC(=O)[C@H](CCSC)NC(=O)[C@H](CO)NC(=O)[C@H](Cc1ccc(O)cc1)NC(=O)[C@@H](N)CO)C(C)C)C(C)C)C(C)C)C(=O)N[C@@H](CCC(=O)O)C(=O)N[C@@H](Cc1c[nH]cn1)C(=O)N[C@H](Cc1ccccc1)C(=O)N[C@@H](CCCNC(=N)N)C(=O)N[C@@H](Cc1c[nH]c2ccccc12)C(=O)NCC(=O)N[C@@H](CCCCN)C(=O)N1CCC[C@H]1C(=O)N[C@H](C(=O)O)C(C)C` [SEQ ID NO. 26, ACTH1-24-linker-linker-NDP-α-MSH], the “Fold change over baseline (corticosterone)” value in the series with plasma corticosterone (0.003 nmol/mouse sc) was determined as 0.8; in the series with plasma corticosterone (0.03 nmol/mouse sc), 1.0; in the series on plasma corticosterone (0.3 nmol/mouse sc), 1.8; in the series with plasma corticosterone (1.0 nmol/mouse sc), 3.3; in the series with plasma corticosterone (3.0 nmol/mouse sc), 3.4; in the series with plasma corticosterone (10.0 nmol/mouse sc) it was 4.4. For the same compound, the Mean corticosterone was 863553 pg/mL in the series on plasma corticosterone (0.003 nmol/mouse sc); 116070 pg/mL with plasma corticosterone (0.03 nmol/mouse sc); 149581 pg/mL in the series on plasma corticosterone (0.3 nmol/mouse sc); 264845 pg/mL in the series on plasma corticosterone (1.0 nmol/mouse sc); 488734 pg/mL in the series with plasma corticosterone (3.0 nmol/mouse sc); 514583 pg/mL with plasma corticosterone (10.0 nmol/mouse sc). The “effect on plasma corticosterone” value in the series with plasma corticosterone (0.015, 0.15, and 1.5 μg/mouse sc) is listed as “no significant effect”. Further, the “reduction in plasma corticosterone levels at equally active dose levels” value in the series on plasma corticosterone (3 nanomole SEQ ID NO. 26 versus 10 nanomole SEQ ID NO. 10, healthy mice) is listed as 40%. For the same compound, in the series on plasma corticosterone (5.2-51.5 μg/mouse sc), the “plasma corticosterone levels (significantly increased, not different from each other)” value was roughly 500 ng/mL. The “plasma corticosterone after a single subcutaneous injection (dose response, words)” value in the series with plasma corticosterone (single sc injection 0.2 ml/mouse, FIG. 14) was “dose-dependent increase in plasma corticosterone”.

For the compound `CSCC[C@H](NC(=O)[C@H](CO)NC(=O)[C@H](Cc1ccc(O)cc1)NC(=O)[C@@H](N)CO)C(=O)N[C@@H](CCC(=O)O)C(=O)N[C@@H](Cc1c[nH]cn1)C(=O)N[C@@H](Cc1ccccc1)C(=O)N[C@@H](CCCNC(=N)N)C(=O)N[C@@H](Cc1c[nH]c2ccccc12)C(=O)NCC(=O)N[C@@H](CCCCN)C(=O)N1CCC[C@H]1C(=O)N[C@H](C(N)=O)C(C)C` [compound 11], the EC50 on MCR2 (Cell Pool C (optimized cell bank)) is greater than 100 nM.

Regarding “NDP-α-MSH-linker-linker-ACTH1-24 (Ac-SYS[Nle]EH[dF]RWGKPVGGGGSGGGGSSYSMEHFRWGKPVGKKRRPVKVYP) [SEQ ID NO. 23]”, the “reducing neutrophil counts in collected exudate (comparison in words)” value in series [1] (FIG. 8) is on record as “more active than SEQ ID NO. 10”. For the same compound, the “reducing IL-1β cytokine concentrations in collected exudate (comparison in words)” value in series [1] (FIG. 9) is recorded as “more active than SEQ ID NO. 10”.

As to “SYSMEHFRWGKPVGKKRRPVKVYPELTGQRLREGDGPDGPADDGAGASYSMEHFRWGKPV [compound 43]”, the results for the EC50 on MCR4 and at MCR2 (setting [2]) were greater than 20 nM and 0.18 nM, respectively.

At MCR2 (setting [2]), “SYSMEHFRWGKPVGKKRRPVKVYPELTGQRLREGDGPDGPADDGAGASYS[Nle]EH[dF]RWGKPV [compound 40]” came in with a concentration for a half-maximal effect (EC50) of 0.15 nM.

Take “SYSMEHFRWGKPVGKKRRPVKVYPPLPEGGPEPRSDGAKPGPREGKRSYSMEHFRWGKPV [compound 42]”: the EC50 on MCR4 was greater than 20 nM; at MCR2 (setting [2]), 0.15 nM.

Consider “SYSMEHFRWGKPVGKKRRPVKVYPPLPEGGPEPRSDGAKPGPREGKRSYS[Nle]EH[dF]RWGKPV [compound 39]”, for which the EC50 was found to be 1.6 nM at MCR4 and 0.18 nM at MCR2 (setting [2]).

Consider “YVMGHFRWDRFGKRSYSMEHFRWGKPVGKKRRPVKVYP [compound 1]”, for which the EC50 at MCR2 (setting [3]) is 26 nM.

For the compound “YVMGHFRWDRFGRRNSSSSGSSGAGQKR [compound 9]”, the EC50 on MCR4 and at MCR2 (setting [2]) was greater than 100 nM throughout.

In turn, “YVMGHFRWDRFGRRNSSSSGSSGAGQSYSMEHFRWGKPVGKKRRPVKVYP [compound 14]” gave an EC50 at MCR2 (setting [3]) greater than 100 nM.

At MCR2 (setting [3]), “YVMGHFRWDRFGSYSMEHFRWGKPVGKKRRPVKVYP [compound 15]” displayed an EC50 of 5 nM.
